Values of other authors in patent US20080260818A1, “Controlled Absorption of Statins in the Intestine” (DEXCEL PHARMA TECHNOLOGIES LTD., priority 2005, published 2008).

What was measured:
[1] = target: T1, HMG-CoA reductase (Homo sapiens, UniProt P04035); details: considering the beta-hydroxy acid form as the drug
T1 sequence (P04035 1-888): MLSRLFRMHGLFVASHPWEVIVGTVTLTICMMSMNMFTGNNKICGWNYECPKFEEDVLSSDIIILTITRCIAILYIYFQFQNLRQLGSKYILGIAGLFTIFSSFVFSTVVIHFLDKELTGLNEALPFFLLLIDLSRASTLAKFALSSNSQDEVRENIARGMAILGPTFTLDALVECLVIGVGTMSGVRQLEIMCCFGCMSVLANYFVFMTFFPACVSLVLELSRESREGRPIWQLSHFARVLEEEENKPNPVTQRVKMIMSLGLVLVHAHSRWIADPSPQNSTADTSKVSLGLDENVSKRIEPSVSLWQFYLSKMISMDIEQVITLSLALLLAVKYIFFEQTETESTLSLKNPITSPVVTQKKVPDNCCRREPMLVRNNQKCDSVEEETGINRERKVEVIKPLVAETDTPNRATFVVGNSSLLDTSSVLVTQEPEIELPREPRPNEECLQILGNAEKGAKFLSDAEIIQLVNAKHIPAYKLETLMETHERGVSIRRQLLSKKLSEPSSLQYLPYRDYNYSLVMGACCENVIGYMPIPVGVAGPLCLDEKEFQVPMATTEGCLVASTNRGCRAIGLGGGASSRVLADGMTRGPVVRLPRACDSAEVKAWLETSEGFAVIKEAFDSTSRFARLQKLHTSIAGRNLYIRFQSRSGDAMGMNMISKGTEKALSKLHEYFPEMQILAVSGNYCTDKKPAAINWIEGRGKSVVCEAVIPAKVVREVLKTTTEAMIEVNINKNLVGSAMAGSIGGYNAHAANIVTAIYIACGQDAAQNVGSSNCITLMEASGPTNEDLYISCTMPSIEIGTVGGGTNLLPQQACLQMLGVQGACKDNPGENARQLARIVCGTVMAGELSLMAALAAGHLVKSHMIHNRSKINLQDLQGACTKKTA

[2] = test system: plasma proteins, primarily albumin; details: Simvastatin and its active acid forms

HMG-CoA reductase activity retained [1] | bound to plasma proteins, primarily to albumin [2] | SMILES
~50% | – | CCC(C)(C)C(=O)OC1CC(C)(O)C=C2C=CC(C)C(CCC3CC(O)CC(=O)O3)C21 (stereo not drawn) [6-beta-hydroxy simvastatin]
approximately 40% | – | CCC(C)(C)C(=O)OC1CC(CO)C=C2C=CC(C)C(CCC3CC(O)CC(=O)O3)C21 (stereo not drawn) [6-beta-hydroxymethyl]
– | more than 95% | CCC(C)(C)C(=O)O[C@H]1C[C@@H](C)C=C2C=C[C@H](C)[C@H](CC[C@@H]3C[C@@H](O)CC(=O)O3)[C@H]21 [simvastatin]
